Assay results as given in patent US7297523B2, “Human elongase genes and uses thereof” (Xenon Pharmaceuticals Inc., priority 2000, dated 2007).

What was measured:
ELG3/V5-His = molecular target: T1, ELG3/V5-His (Homo sapiens, UniProt Q9NXB9); test: Elongation of [1-14C]20:5n-3 in microsomes of yeast expressing ELG3/V5-His; format: biochemical; settings: for % conversion 24:5n-3 / % conversion 22:5n-3 / % conversion Total: substrate [1-14C]20:5n-3 7.2 μM; for % conversion 24:5n-3: control 5.0; for % conversion 22:5n-3: control 13.7; for % conversion Total: control 18.7
T1 construct: made in house; host or cells: Saccharomyces cerevisiae (INVSc1), microsomal fraction
T1 sequence (Q9NXB9 1-296): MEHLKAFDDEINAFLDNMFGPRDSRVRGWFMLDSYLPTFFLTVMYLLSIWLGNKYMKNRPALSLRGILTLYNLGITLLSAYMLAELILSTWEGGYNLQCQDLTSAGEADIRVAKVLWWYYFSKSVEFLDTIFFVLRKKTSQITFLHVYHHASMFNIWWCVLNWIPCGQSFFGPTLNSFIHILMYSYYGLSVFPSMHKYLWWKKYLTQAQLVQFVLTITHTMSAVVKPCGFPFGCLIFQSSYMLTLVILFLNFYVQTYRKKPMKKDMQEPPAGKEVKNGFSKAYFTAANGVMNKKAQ
Method: A sulphoxide derivative of S-propylbutylethylthiocarbamate (pebulate sulphoxide) was obtained from Zeneca Agrochemicals, UK, and dissolved in ethanol at a concentration of 5 mM.
A 51 culture of Saccharomyces cerevisiae transformed with pTh1017.1 encoding ELG3/V5-His was started with a cell density of approximately 3.2×10^5 cells/ml (O.D.600 0.4) using SC-U medium with 1% raffinose. After 8 h of incubation at 30° C. in an orbital shaker at 270 rpm, galactose was added to a final concentration of 2%. Yeast were incubated for an additional 12 h until they were harvested by centrifugation at 2060×g for 10 minutes at 4° C. and washed with water. The cell pellet was resuspended in ⅓ of its volume in a pH 7.2 isolation buffer (80 mM Hepes-KOH, 10 mM KCl, 320 mM sucrose, 2 mM PMSF and a protease inhibitor cocktail). The cell suspension was poured into a mortar containing liquid N2 and ground with sand using a ceramic pestle. The yeast powder was transferred to a conical test tube, to which ⅔ of the pellet volume of isolation buffer was added. The sand was removed by centrifugation at 228×g for 1 min and the suspension centrifuged at 10,000×g for 20 min to separate cell debris, nuclei and mitochondria. The supernatant was centrifuged at 106,000×g for 1.5 h to obtain the microsomal pellet, which was resuspended in storage buffer (80 mM Hepes-KOH, 10 mM KCl, 320 mM sucrose, 1 mM PMSF and a protease inhibitor cocktail) to a final protein concentration of 20 μg/μl. The protein concentration was measured by the method of Lowry et al. (1951, .J Biol. Chem., 193: 265-275) with bovine serum albumin as standard.
The activity of ELG3/V5-His was determined by measuring the conversion of [1-^14C]20:5n-3 to [1-^14C]22:5n-3 and [1-^14C]24:5n-3. Reactions were started by adding 500 μg of yeast microsomal protein to pre-incubated tubes containing 0.20 μCi of the substrate fatty acid at a final concentration of 7.2 μM in 0.25 ml of 80 mM Hepes-KOH (pH 7.2) with 43 mM MgCl2, 1.0 mM ATP,500 μM NADPH, 10 μM coenzyme A, 100 μM […] (as lithium salt) and pebulate sulphoxide at concentrations that ranged between 1 to 100 μM. The tubes were vortexed vigorously and after 30 min incubation at 37° C. in a shaking water bath, the reactions were stopped by the addition of 2 ml of 10% (w/v) KOH in ethanol. Lipids in the incubation mixture were saponified at 80° C. for 45 min under N2. The samples were then left in ice for 5 min before acidification with 750 μl of concentrated HCl. […] The fatty acid methyl esters were analyzed by HPLC as described in Example 19.
The enzyme activity was expressed in percent conversion of radiolabelled 20:5n-3 into its elongation products. Alternatively, it can be expressed in pmol of the fatty acids produced/mg microsomal protein/min.

rat liver elongase = test: Elongation of [1-14C]20:5n-3 in rat liver microsomes; format: biochemical; settings: for % conversion 24:6n-3: delta-6-desaturation product of 24:5n-3, control 9.1; for % conversion 22:5n-3 / % conversion 24:5n-3 / % conversion Total: substrate [1-14C]20:5n-3; for % conversion 22:5n-3: control 11.6; for % conversion 24:5n-3: control 39.7; for % conversion Total: control 60.4
Method: Wistar rats under light halothane (15% in mineral oil) anesthesia were sacrificed by exsanguination during periods of high enzyme activity. Livers were immediately rinsed with cold 0.9% NaCl solution, weighed and minced with scissors. All procedures were performed at 4° C. unless specified-otherwise. Livers were homogenized in a solution (1:3 w/v) containing 0.25 M sucrose, 62 mM potassium phosphate buffer (pH 7.0), 0.15 M KCl, 1.5 mM N-acetylcysteine, 5 mM MgCl2, and 0.1 mM EDTA using 4 strokes of a Potter-Elvehjem tissue homogenizer. The homogenate was centrifuged at 10,400×g for 20 min to pellet mitochondria and cellular debris. The supernatant was filtered through a 3-layer cheesecloth and centrifuged at 105,000×g for 60 min. The microsomal pellet was gently resuspended in the same homogenization solution with a small glass/teflon homogenizer and stored at −80° C. The absence of mitochondrial contamination was enzymatically assessed as described elsewhere (Kilberg, M. S. and Christensen H. N., 1979, Biochemistry, 18: 1525-1530). The protein concentration was measured by the method of Lowry et al (1951, J. Biol. Chem., 193: 265-275) with bovine serum albumin as standard.
Reactions were performed using 500 μg of rat liver microsomal protein with the same concentrations of pebulate sulphoxide, radiolabelled fatty acid, conditions and procedures described in Example 21.
The enzyme activity was expressed in percent conversion of radiolabelled 20:5n-3 into its elongation and final delta-6-desaturation products (i.e., 22:5n-3, 24:5n-3 and 24:6n-3).

18:3n-6 = test: Elongation of [1-14C]18:3n-6 in yeast expressing human elongases (RP-HPLC); settings: untagged elongase, 25 μM substrate; for Percent Elongation of 18:3n-6 to 20:3: product 20:3n-6
Source text: (§1) For the expression of ELG1, ELG2, ELG3, ELG4, ELG5, ELG6 or ELG7 the yeast were transformed with pTh1009.1, pTh1014.1, pTh1015.1, pTh1021.1, pTh1018.1, pTh1041.1 or pTh1044.1, respectively. For the expression of ELG1/V5-His, ELG2/V5-His, ELG3/V5-His, ELG4/V5-His, ELG5/V5-His, ELG6/V5 -His or ELG7/V5-His the yeast were transformed with pTh1009.2, pTh1014.2, pTh1017.1, pTh1021.2, pTh1019.1, pTh1042.1 or pTh1045.1, respectively. Recombinant yeast cells were selected on SC-U medium.
(§2) Transformed yeast (approximately 3.2×10^6 cells/ml; O.D.600 0.4) were incubated in a 125 ml Erlenmeyer containing 10 ml of SC-U medium with 1% raffinose, 1% tergitol and 25 μM of the lithium salts of either [1-^14C]18:3n-3 (1 μCi), [1-^14C]18:3n-6 (1 μCi), [1-^14C]20:4n-6 (2 μCi), or [1-^14C]20:5n-3 (2 μCi). After 4 h incubation in an orbital incubator at 270 rpm and 30° C., cells reached the log phase and the transgene, expression was induced with galactose 30° C., cells reached the log phase and the transgene expression was induced with galactose (2% final concentration). The yeast were incubated for an additional 19 h and then harvested by centrifugation at 5000×g for 10 minutes at 4° C.
(§3) Cells were washed with Tris-HCl buffer (100 mM, pH 8.0) containing 0.1% BSA and total lipids were extracted as described below. The radioactivity from aliquots of the incubation medium, supernatant and cells was determined by liquid scintillation counting using a LS6500-Scintillation System (Beckman).
(§4) Alternatively, cells were resuspended in 1.5 ml of water and saponified with 2 ml of 10% KOH in ethanol. The total lipid extracts or the free fatty acids from the saponified samples were methylated using boron trifluoride in methanol at 90° C. for 30 min. The resultant methyl esters (FAME) were analyzed as described below.
(§5) Analyses of radiolabelled FAME were carried out on a Hewlett Packard 1090, series II chromatograph equipped with a diode array detector set at 205 nm, a radioisotope detector (model 171, Beckman, CA) with a solid scintillation cartridge (97% efficiency for ^14C-detection) and a reverse phase ODS (C-18) Beckman column (250 mm×4.6 mm i.d.; 5 μm particle size) attached to a pre-column with a μBondapak C-18 (Beckman) insert. FAME were separated isocratically with acetonitrile/water (95.5 v/v) at a flow rate of 1 ml/min and were identified by comparison with authentic standards. Alternatively, the eluted FAME were collected and the solvent evaporated. FAME were re-dissolved in hexane for further analysis by gas chromatography.
20:4n-6 = test: Elongation of [1-14C]20:4n-6 in yeast expressing human elongases (RP-HPLC); settings: for Percent Elongation of 20:4n-6 to 22:4: product 22:4n-6
Source text: as §1, §2, §3, §4, §5
18:3n-3 = test: Elongation of [1-14C]18:3n-3 in yeast expressing human elongases (RP-HPLC); settings: for Percent Elongation of 18:3n-3 to 20:3: product 20:3n-3
Source text: as §1, §2, §3, §4, §5
20:5n-3 = test: Elongation of [1-14C]20:5n-3 in yeast expressing human elongases (RP-HPLC); settings: untagged elongase, 25 μM substrate
Source text: as §1, §2, §3
Alternatively, cells were resuspended in 1.5 ml of water and saponified with 2 ml of 10% KOH in ethanol. The total lipid extracts or the free fatty acids from the saponified samples were methylated using boron trifluoride in methanol at 90° C. for 30 min. The resultant methyl esters (FAME) were analyzed as described below. […]

[1] = untagged elongase, 25 μM substrate

CCCCN(CC)C(=O)[S+]([O-])CCC (centres unmarked) [Pebulate sulphoxide, sulphoxide derivative of S-propylbutylethylthiocarbamate]
% conversion 24:5n-3 (ELG3/V5-His; 1 μM): 5.6%
% conversion 22:5n-3 (ELG3/V5-His; 1 μM): 13.8%
% conversion Total (ELG3/V5-His; 1 μM): 19.4%
% conversion 24:5n-3 (ELG3/V5-His; 10 μM): 6.6%
% conversion 22:5n-3 (ELG3/V5-His; 10 μM): 12.8%
% conversion Total (ELG3/V5-His; 10 μM): 19.4%
% conversion 24:5n-3 (ELG3/V5-His; 50 μM): 4.6%
% conversion 22:5n-3 (ELG3/V5-His; 50 μM): 11.3%
% conversion Total (ELG3/V5-His; 50 μM): 15.9%
reduction of elongation (ELG3/V5-His activity) (ELG3/V5-His; 100 μM, 20:5n-3 as substrate): approximately 27%
% conversion 24:5n-3 (ELG3/V5-His; 100 μM): 4.3%
% conversion 22:5n-3 (ELG3/V5-His; 100 μM): 9.4%
% conversion Total (ELG3/V5-His; 100 μM): 13.7%
% conversion 24:6n-3 (rat liver elongase; 1 μM): 9.6%
% conversion 22:5n-3 (rat liver elongase; 1 μM): 12.5%
% conversion 24:5n-3 (rat liver elongase; 1 μM): 47.5%
% conversion Total (rat liver elongase; 1 μM): 69.3%
% conversion 24:6n-3 (rat liver elongase; 10 μM): 10.9%
% conversion 22:5n-3 (rat liver elongase; 10 μM): 12.5%
% conversion 24:5n-3 (rat liver elongase; 10 μM): 47.2%
% conversion Total (rat liver elongase; 10 μM): 70.7%
% conversion 24:6n-3 (rat liver elongase; 50 μM): 7.9%
% conversion 22:5n-3 (rat liver elongase; 50 μM): 12.2%
% conversion 24:5n-3 (rat liver elongase; 50 μM): 48.7%
% conversion Total (rat liver elongase; 50 μM): 68.8%
reduction of elongation (rat liver elongase activity) (rat liver elongase; 100 μM, 20:5n-3 as substrate): approximately 30%
% conversion 24:6n-3 (rat liver elongase; 100 μM): 4.5%
% conversion 22:5n-3 (rat liver elongase; 100 μM): 10.2%
% conversion 24:5n-3 (rat liver elongase; 100 μM): 28.0%
% conversion Total (rat liver elongase; 100 μM): 42.7%

B1: ELG4: human PUFA elongase (SEQ ID NO: 5) expressed in yeast from plasmid pTh1021.1 (protein)
chain: MAFSDLTSRTVHLYDNWIKDADPRVEDWLLMSSPLPQTILLGFYVYFVTSLGPKLMENRKPFELKKAMITYNFFIVLFSVYMCYEFVMSGWGIGYSFRCDIVDYSRSPTALRMARTCWLYYFSKFIELLDTIFFVLRKKNSQVTFLHVFHHTIMPWTWWFGVKFAAGGLGTFHALLNTAVHVVMYSYYGLSALGPAYQKYLWWKKYLTSLQLVQFVIVAIHISQFFFMEDCKYQFPVFACIIMSYSFMFLLLFLHFWYRAYTKGQRLPKTVKNGTCKNKDN
modifications: human
Percent Elongation of 18:3n-6 to 20:3 (18:3n-6): 20%
Percent Elongation of 18:3n-6 to 22:3 (18:3n-6; product 22:3n-6): 4%
Percent Elongation of 20:4n-6 to 22:4 (20:4n-6; V5-His tagged elongase): 12%
Percent Elongation of 20:4n-6 to 22:4 (20:4n-6; [1]): 24%
Percent Elongation of 20:4n-6 to 24:4 (20:4n-6; untagged elongase, 25 μM substrate, product 24:4n-6): 2%
Percent Elongation of 18:3n-3 to 20:3 (18:3n-3; [1]): 10%
Percent Elongation of 18:3n-3 to 22:3 (18:3n-3; untagged elongase, 25 μM substrate, product 22:3n-3): 4%
Percent Elongation of 20:5n-3 to 22:5 (20:5n-3; product 22:5n-3): 15%
Percent Elongation of 20:5n-3 to 24:5 (20:5n-3; product 24:5n-3): 3%

B2: ELG7: human PUFA elongase (SEQ ID NO: 12) expressed in yeast from plasmid pTh1044.1 (protein)
chain: MGLLDSEPGSVLNVVSTALNDTVEFYRWTWSIADKRVENWPLMQSPWPTLSISTLYLLFVWLGPKWMKDREPFQMRLVLIIYNFGMVLLNLFIFRELFMGSYNAGYSYICQSVDYSNNVHEVRIAAALWWYFVSKGVEYLDTVFFILRKKNNQVSFLHVYHHCTMFTLWWIGIKWVAGGQAFFGAQLNSFIHVIMYSYYGLTAFGPWIQKYLWWKRYLTMLQLIQFHVTIGHTALSLYTDCPFPKWMHWALIAYAISFIFLFLNFYIRTYKEPKKPKAGKTAMNGISANGVSKSEKQLMIENGKKQKNGKAKGD
modifications: human
Percent Elongation of 18:3n-3 to 20:3 (18:3n-3; V5-His tagged elongase): 4%
Percent Elongation of 18:3n-3 to 20:3 (18:3n-3; [1]): 5%

B3: ELG6: human PUFA elongase (SEQ ID NO: 9) expressed in yeast from plasmid pTh1041.1 (protein)
chain: MVTAMNVSHEVNQLFQPYNFELSKDMRPFFEEYWATSFPIALIYLVLIAVGQNYMKERKGFNLQGPLILWSFCLAIFSILGAVRMWGIMGTVLLTGGLKQTVCFINFIDNSTVKFWSWVFLLSKVIELGDTAFIILRKRPLIFIHWYHHSTVLVYTSFGYKNKVPAGGWFVTMNFGVHAIMYTYYTLKAANVKPPKMLPMLITSLQILQMFVGAIVSILTYIWRQDQGCHTTMEHLFWSFILYMTYFILFAHFFCQTYIRPKVKAKTKSQ
modifications: human
Percent Elongation of 18:3n-6 to 20:3 (18:3n-6): 2%
Percent Elongation of 18:3n-3 to 20:3 (18:3n-3; V5-His tagged elongase): 3%
Percent Elongation of 18:3n-3 to 20:3 (18:3n-3; [1]): 3%
